Measurements as given in publication PMC5218480 (PLoS ONE, 2017).

Tested on: MV-4-11 cells
Experiment: Gene expression microarray analysis (Affymetrix PrimeView) and GSEA
Format: cell-based, human
Set-up: RFU PODN (11730768_x_at) / Fold change /veh PODN (11730768_x_at) / RFU LINC00158 (11744669_a_at) / Fold change /veh LINC00158 (11744669_a_at) / RFU DUSP10 (11751237_a_at) / Fold change /veh DUSP10 (11751237_a_at) / RFU ID3 (11757404_x_at) / Fold change /veh ID3 (11757404_x_at) / RFU PLEKHG5 (11737974_s_at) / Fold change /veh PLEKHG5 (11737974_s_at) / RFU LRRC4B (11730491_at) / Fold change /veh LRRC4B (11730491_at) / RFU GIMAP4 (11747438_a_at) / Fold change /veh GIMAP4 (11747438_a_at) / RFU KRT8 (11758183_x_at) / Fold change /veh KRT8 (11758183_x_at) / RFU CNN1 (11734310_a_at) / Fold change /veh CNN1 (11734310_a_at) / RFU VPS37D (11726825_at) / Fold change /veh VPS37D (11726825_at) / RFU C10orf10 (11716522_x_at) / Fold change /veh C10orf10 (11716522_x_at) / RFU KIR2DL2 /// KIR2DL4 /// KIR2DL5A /// KIR2DL5B /// KIR2DS1 /// KIR2DS2 /// KIR2DS3 /// KIR2DS4 /// KIR3DL3 /// KIR3DL3 /// KIR3DS1 (11738374_at) / Fold change /veh KIR2DL2 /// KIR2DL4 /// KIR2DL5A /// KIR2DL5B /// KIR2DS1 /// KIR2DS2 /// KIR2DS3 /// KIR2DS4 /// KIR3DL3 /// KIR3DL3 /// KIR3DS1 (11738374_at) / RFU C1QL1 (11718748_at) / Fold change /veh C1QL1 (11718748_at) / RFU TMPRSS4 (11747572_a_at) / Fold change /veh TMPRSS4 (11747572_a_at) / RFU HAMP (11756126_x_at) / Fold change /veh HAMP (11756126_x_at) / RFU RNFT2 (11725882_a_at) / Fold change /veh RNFT2 (11725882_a_at) / RFU NR4A2 (11747474_a_at) / Fold change /veh NR4A2 (11747474_a_at) / RFU ABCC12 (11746883_a_at) / Fold change /veh ABCC12 (11746883_a_at) / RFU TMEM136 (11760407_x_at) / Fold change /veh TMEM136 (11760407_x_at) / RFU CLDN22 /// WWC2 (11732394_at) / Fold change /veh CLDN22 /// WWC2 (11732394_at) / RFU HLA-DPB1 (11760878_x_at) / Fold change /veh HLA-DPB1 (11760878_x_at) / RFU SPINT1 (11716480_a_at) / Fold change /veh SPINT1 (11716480_a_at) / RFU GAP43 (11754022_s_at) / Fold change /veh GAP43 (11754022_s_at) / RFU A4GNT (11735810_at) / Fold change /veh A4GNT (11735810_at) / RFU PRB3 (11715151_x_at) / Fold change /veh PRB3 (11715151_x_at) / RFU TUBB4B (11761932_at) / Fold change /veh TUBB4B (11761932_at) / RFU CAPN14 (11732068_a_at) / Fold change /veh CAPN14 (11732068_a_at) / RFU TMCC2 (11721928_a_at) / Fold change /veh TMCC2 (11721928_a_at) / RFU IRGQ (11745062_a_at) / Fold change /veh IRGQ (11745062_a_at) / RFU FAM174B (11720279_a_at) / Fold change /veh FAM174B (11720279_a_at) / RFU TMPRSS4 (11748680_a_at) / Fold change /veh TMPRSS4 (11748680_a_at) / RFU FAM212B (11763350_a_at) / Fold change /veh FAM212B (11763350_a_at) / RFU PLEKHG5 (11743358_a_at) / Fold change /veh PLEKHG5 (11743358_a_at) / RFU ZSCAN30 (11745921_a_at) / Fold change /veh ZSCAN30 (11745921_a_at) / RFU CMKLR1 (11741424_a_at) / Fold change /veh CMKLR1 (11741424_a_at) / RFU LOC101060620 /// MAPK8IP1 (11723275_at) / Fold change /veh LOC101060620 /// MAPK8IP1 (11723275_at) / RFU SPTSSB (11747773_x_at) / Fold change /veh SPTSSB (11747773_x_at) / RFU PRSS12 (11739890_at) / Fold change /veh PRSS12 (11739890_at) / RFU BIN1 (11741810_x_at) / Fold change /veh BIN1 (11741810_x_at) / RFU WNT11 (11732464_a_at) / Fold change /veh WNT11 (11732464_a_at) / RFU C10orf10 (11716521_a_at) / Fold change /veh C10orf10 (11716521_a_at) / RFU C5orf56 (11738089_at) / Fold change /veh C5orf56 (11738089_at) / RFU CYB561 (11721691_x_at) / Fold change /veh CYB561 (11721691_x_at) / RFU ANKRD19P (11752326_a_at) / Fold change /veh ANKRD19P (11752326_a_at) / RFU OR2T12 /// OR2T33 /// OR2T8 (11738714_s_at) / Fold change /veh OR2T12 /// OR2T33 /// OR2T8 (11738714_s_at) / RFU VCAN (11748164_a_at) / Fold change /veh VCAN (11748164_a_at) / RFU JSRP1 (11732532_at) / Fold change /veh JSRP1 (11732532_at) / RFU KRTAP10-11 (11738290_x_at) / Fold change /veh KRTAP10-11 (11738290_x_at) / RFU MYO3A (11730013_a_at) / Fold change /veh MYO3A (11730013_a_at) / RFU EBF3 (11725865_a_at) / Fold change /veh EBF3 (11725865_a_at) / RFU CAMK2N1 (11719241_x_at) / Fold change /veh CAMK2N1 (11719241_x_at) / RFU C5orf56 (11738088_a_at) / Fold change /veh C5orf56 (11738088_a_at) / RFU OLFML3 (11715873_a_at) / Fold change /veh OLFML3 (11715873_a_at) / RFU LOC100653217 /// NTM (11731650_a_at) / Fold change /veh LOC100653217 /// NTM (11731650_a_at) / RFU MAPK11 (11762145_a_at) / Fold change /veh MAPK11 (11762145_a_at) / RFU FIZ1 (11724087_x_at) / Fold change /veh FIZ1 (11724087_x_at) / RFU OASL (11726364_x_at) / Fold change /veh OASL (11726364_x_at) / RFU SOX15 (11748057_x_at) / Fold change /veh SOX15 (11748057_x_at) / RFU CD79A (11719716_a_at) / Fold change /veh CD79A (11719716_a_at) / RFU HIST1H1D (11736915_at) / Fold change /veh HIST1H1D (11736915_at) / RFU CASKIN2 (11723855_a_at) / Fold change /veh CASKIN2 (11723855_a_at) / RFU LOC730098 (11760151_x_at) / Fold change /veh LOC730098 (11760151_x_at) / RFU OR4N2 (11742367_at) / Fold change /veh OR4N2 (11742367_at) / RFU PRRT2 (11749266_a_at) / Fold change /veh PRRT2 (11749266_a_at) / RFU SNX32 (11753110_a_at) / Fold change /veh SNX32 (11753110_a_at) / RFU CDHR5 (11726645_a_at) / Fold change /veh CDHR5 (11726645_a_at) / RFU RCAN1 (11760418_a_at) / Fold change /veh RCAN1 (11760418_a_at) / RFU FAM167A (11723789_a_at) / Fold change /veh FAM167A (11723789_a_at) / RFU FAM26E (11764081_at) / Fold change /veh FAM26E (11764081_at) / RFU ISYNA1 (11749810_s_at) / Fold change /veh ISYNA1 (11749810_s_at) / RFU ACY1 (11761880_at) / Fold change /veh ACY1 (11761880_at) / RFU 11764098_at / Fold change /veh 11764098_at / RFU SAMD14 (11745864_x_at) / Fold change /veh SAMD14 (11745864_x_at) / RFU NPB (11741838_a_at) / Fold change /veh NPB (11741838_a_at) / RFU TMPRSS6 (11731388_a_at) / Fold change /veh TMPRSS6 (11731388_a_at) / RFU KRTAP10-2 (11738614_at) / Fold change /veh KRTAP10-2 (11738614_at) / RFU ARHGAP8 /// PRR5-ARHGAP8 (11727945_x_at) / Fold change /veh ARHGAP8 /// PRR5-ARHGAP8 (11727945_x_at) / RFU KRTAP5-7 /// NADSYN1 (11734609_at) / Fold change /veh KRTAP5-7 /// NADSYN1 (11734609_at) / RFU RASL12 (11751679_a_at) / Fold change /veh RASL12 (11751679_a_at) / RFU CDKN2B (11736163_a_at) / Fold change /veh CDKN2B (11736163_a_at) / RFU PRF1 (11729649_at) / Fold change /veh PRF1 (11729649_at) / RFU, ZNF638 /// ZNF638-IT1 / Fold change vs veh, ZNF638 /// ZNF638-IT1 / RFU, PANK3 / Fold change vs veh, PANK3 / RFU, SH3YL1 / Fold change vs veh, SH3YL1 / RFU, ZEB2 / Fold change vs veh, ZEB2 / RFU, NRIP1 / Fold change vs veh, NRIP1 / RFU, PTTG1IP / Fold change vs veh, PTTG1IP / RFU, CAPN2 / Fold change vs veh, CAPN2 / RFU, MED14 / Fold change vs veh, MED14 / RFU, SNORA58 / Fold change vs veh, SNORA58 / RFU, C1orf63 / Fold change vs veh, C1orf63 / RFU, LRRFIP1 / Fold change vs veh, LRRFIP1 / RFU, NDUFAF7 / Fold change vs veh, NDUFAF7 / RFU, SLC12A2 / Fold change vs veh, SLC12A2 / RFU, IBTK / Fold change vs veh, IBTK / RFU, ESF1 / Fold change vs veh, ESF1 / Fold change vs veh, TMEM50B / RFU, TAOK1 / Fold change vs veh, TAOK1 / RFU, ACBD3 / Fold change vs veh, ACBD3 / RFU, TMA16 / Fold change vs veh, TMA16 / RFU, RWDD3 / Fold change vs veh, RWDD3 / RFU, BCAT1 / Fold change vs veh, BCAT1 / RFU, EDEM3 / Fold change vs veh, EDEM3 / RFU, TMEM33 / Fold change vs veh, TMEM33 / RFU, WDR75 / Fold change vs veh, WDR75 / RFU, AHCTF1 / Fold change vs veh, AHCTF1 / RFU, TFRC / Fold change vs veh, TFRC / RFU, ZDHHC17 / Fold change vs veh, ZDHHC17 / RFU, NOM1 / Fold change vs veh, NOM1 / RFU, ARL8B / Fold change vs veh, ARL8B / RFU, ZBTB11 / Fold change vs veh, ZBTB11 / RFU, TAMM41 / Fold change vs veh, TAMM41 / RFU, KIAA1704 /// LOC100996395 / Fold change vs veh, KIAA1704 /// LOC100996395 / RFU, ING1 / Fold change vs veh, ING1 / RFU, TRMT61B / Fold change vs veh, TRMT61B / RFU, FUBP3 / Fold change vs veh, FUBP3 / RFU, TP53 / Fold change vs veh, TP53 / RFU, TNKS2 / Fold change vs veh, TNKS2 / RFU, ZFP14 / Fold change vs veh, ZFP14 / RFU, ACTR2 / Fold change vs veh, ACTR2 / RFU, PPP3R1 / Fold change vs veh, PPP3R1 / RFU, PIK3R1 / Fold change vs veh, PIK3R1 / RFU, HNRNPA1 / Fold change vs veh, HNRNPA1 / RFU, RNF170 / Fold change vs veh, RNF170 / RFU, ZNF28 / Fold change vs veh, ZNF28 / RFU, RNGTT / Fold change vs veh, RNGTT / RFU, OGT / Fold change vs veh, OGT / RFU, BRD1 / Fold change vs veh, BRD1 / RFU, MARS / Fold change vs veh, MARS / RFU, ZNF655 / Fold change vs veh, ZNF655 / RFU, FAHD1 / Fold change vs veh, FAHD1 / RFU, BDP1 / Fold change vs veh, BDP1 / RFU, LRRCC1 / Fold change vs veh, LRRCC1 / RFU, ARID1A / Fold change vs veh, ARID1A / RFU, ZNF146 / Fold change vs veh, ZNF146 / RFU, ZNF330 / Fold change vs veh, ZNF330 / RFU, GPN3 / Fold change vs veh, GPN3 / RFU, C9orf123 / Fold change vs veh, C9orf123 / RFU, N4BP2L2 / Fold change vs veh, N4BP2L2 / RFU, ARFIP1 / Fold change vs veh, ARFIP1 / RFU, FAM179B / Fold change vs veh, FAM179B / RFU, BCL10 / Fold change vs veh, BCL10 / RFU, UHRF1BP1L / Fold change vs veh, UHRF1BP1L / RFU, BET1 / Fold change vs veh, BET1 / RFU, CNOT2 / Fold change vs veh, CNOT2 / RFU, ZNF268 / Fold change vs veh, ZNF268 / Fold change vs veh, ZNF507 / RFU, DGCR2 / Fold change vs veh, DGCR2 / RFU, WDSUB1 / Fold change vs veh, WDSUB1 / Fold change vs veh, HSP90B1 /// MIR3652 / RFU, ADSS / Fold change vs veh, ADSS / RFU, GK / Fold change vs veh, GK / RFU, ZNF148 / Fold change vs veh, ZNF148 / RFU, TAF9 / Fold change vs veh, TAF9 / RFU, SLC1A5 / Fold change vs veh, SLC1A5 / RFU, SLMO2 / Fold change vs veh, SLMO2 / RFU, ABCC4 / Fold change vs veh, ABCC4 / RFU, LOC101060439 /// RAP1B / Fold change vs veh, LOC101060439 /// RAP1B / RFU, RFX7 / Fold change vs veh, RFX7 / RFU, GTPBP10 / Fold change vs veh, GTPBP10 / RFU, CNEP1R1 / Fold change vs veh, CNEP1R1 / RFU, BIVM-ERCC5 /// ERCC5 / Fold change vs veh, BIVM-ERCC5 /// ERCC5 / RFU, ILF3 / Fold change vs veh, ILF3 / RFU 11762660_at / Fold change /veh 11762660_at / RFU VCAN (11757783_s_at) / Fold change /veh VCAN (11757783_s_at) / RFU DDX43 (11728927_at) / Fold change /veh DDX43 (11728927_at) / RFU KRT8 (11758188_x_at) / Fold change /veh KRT8 (11758188_x_at) / RFU NKD1 (11759106_at) / Fold change /veh NKD1 (11759106_at) / RFU SRD5A1 (11742802_a_at) / Fold change /veh SRD5A1 (11742802_a_at) / RFU TPSAB1 /// TPSB2 (11721975_s_at) / Fold change /veh TPSAB1 /// TPSB2 (11721975_s_at) / RFU GSTM3 (11746129_a_at) / Fold change /veh GSTM3 (11746129_a_at) / RFU IL23R (11737362_x_at) / Fold change /veh IL23R (11737362_x_at) / RFU TMEM51 (11727254_a_at) / Fold change /veh TMEM51 (11727254_a_at) / RFU PIWIL2 (11732686_x_at) / Fold change /veh PIWIL2 (11732686_x_at) / RFU ORM1 (11744905_x_at) / Fold change /veh ORM1 (11744905_x_at) / RFU CCDC152 (11743942_at) / Fold change /veh CCDC152 (11743942_at) / RFU ECM1 (11717891_a_at) / Fold change /veh ECM1 (11717891_a_at) / RFU IL23R (11748794_a_at) / Fold change /veh IL23R (11748794_a_at) / RFU TNFAIP8L3 (11732012_x_at) / Fold change /veh TNFAIP8L3 (11732012_x_at) / RFU MBOAT4 (11741988_at) / Fold change /veh MBOAT4 (11741988_at) / RFU 11764193_at / Fold change /veh 11764193_at / RFU TMEM53 (11763286_at) / Fold change /veh TMEM53 (11763286_at) / RFU MAGEB2 (11727129_at) / Fold change /veh MAGEB2 (11727129_at) / RFU TMEM200A (11744735_a_at) / Fold change /veh TMEM200A (11744735_a_at) / RFU CCDC152 (11751479_a_at) / Fold change /veh CCDC152 (11751479_a_at) / RFU FAM211A (11726209_a_at) / Fold change /veh FAM211A (11726209_a_at) / RFU RGS16 (11746705_a_at) / Fold change /veh RGS16 (11746705_a_at) / RFU VCAN (11755009_s_at) / Fold change /veh VCAN (11755009_s_at) / RFU RHOB (11743442_s_at) / Fold change /veh RHOB (11743442_s_at) / RFU RGS16 (11720943_a_at) / Fold change /veh RGS16 (11720943_a_at) / RFU RGS16 (11720944_at) / Fold change /veh RGS16 (11720944_at) / RFU, VPS4B / Fold change vs veh, VPS4B / RFU, CREB1 / Fold change vs veh, CREB1 / RFU, DNAJC13 / Fold change vs veh, DNAJC13 / RFU, GNAQ / Fold change vs veh, GNAQ / RFU, CDK5R1 / Fold change vs veh, CDK5R1 / RFU, ZRANB3 / Fold change vs veh, ZRANB3 / RFU, CUL4A / Fold change vs veh, CUL4A / RFU, CCNY / Fold change vs veh, CCNY / RFU, UFL1 / Fold change vs veh, UFL1 / RFU, COG3 / Fold change vs veh, COG3 / RFU, DIAPH2 / Fold change vs veh, DIAPH2 / RFU, SKA2 / Fold change vs veh, SKA2 / RFU, AFF3 / Fold change vs veh, AFF3 / RFU, LMF1 / Fold change vs veh, LMF1 / RFU, IPO11 / Fold change vs veh, IPO11 / RFU, DFFB / Fold change vs veh, DFFB / RFU, FOXP1 / Fold change vs veh, FOXP1 / RFU, CARD8 / Fold change vs veh, CARD8 / RFU, STRN3 / Fold change vs veh, STRN3 / RFU, ADK / Fold change vs veh, ADK / RFU, RASSF2 / Fold change vs veh, RASSF2 / RFU, WIPF1 / Fold change vs veh, WIPF1 / RFU, LARP1B / Fold change vs veh, LARP1B / RFU, RASA1 / Fold change vs veh, RASA1 / RFU, RB1 / Fold change vs veh, RB1 / RFU, PPFIA1 / Fold change vs veh, PPFIA1 / RFU, MAT2A / Fold change vs veh, MAT2A / RFU, CCT5 / Fold change vs veh, CCT5 / RFU, WDR92 / Fold change vs veh, WDR92 / RFU, CUX1 / Fold change vs veh, CUX1 / RFU, TTC7A / Fold change vs veh, TTC7A / RFU, TMEM135 / Fold change vs veh, TMEM135 / RFU, DEPTOR / Fold change vs veh, DEPTOR / RFU, CPM / Fold change vs veh, CPM / RFU, DNAJB6 / Fold change vs veh, DNAJB6 / RFU, CACNA2D3 / Fold change vs veh, CACNA2D3 / RFU, DTX4 / Fold change vs veh, DTX4 / RFU, TFCP2 / Fold change vs veh, TFCP2 / RFU, GMCL1 /// GMCL1P1 / Fold change vs veh, GMCL1 /// GMCL1P1 / RFU, AEBP2 / Fold change vs veh, AEBP2 / RFU, SNHG1 /// SNORD22 /// SNORD25 /// SNORD26 /// SNORD27 /// SNORD28 /// SNORD29 /// SNORD31 / Fold change vs veh, SNHG1 /// SNORD22 /// SNORD25 /// SNORD26 /// SNORD27 /// SNORD28 /// SNORD29 /// SNORD31 / Fold change (Aza/veh), C12orf56 (ProbeSet 11735607_a_at) / Fold change (ACY-1035/veh), C12orf56 (ProbeSet 11735607_a_at) / Fold change (Aza/veh), FGFR1OP (ProbeSet 11751329_s_at) / Fold change (ACY-1035/veh), FGFR1OP (ProbeSet 11751329_s_at) / Fold change (Aza/veh), VPS36 (ProbeSet 11739960_a_at) / Fold change (ACY-1035/veh), VPS36 (ProbeSet 11739960_a_at) / RFU SYPL1 (11715823_x_at) / Fold change /veh SYPL1 (11715823_x_at) / RFU IGFBP7 (11715501_s_at) / Fold change /veh IGFBP7 (11715501_s_at) / RFU REEP3 (11722064_at) / Fold change /veh REEP3 (11722064_at) / RFU IGLL1 (11728026_x_at) / Fold change /veh IGLL1 (11728026_x_at): dose or concentration left out as unconfirmed
Conditions: ProbeSet 11717308_a_at; LIST B

SMILES: Nc1ccc(-c2cccs2)cc1NC(=O)c1ccc2c(c1)cc(C1CC1)n2CCN1CCOCC1 [ACY-1035]
- Fold change vs veh, WDR75: 0.92
